From patent publication US20080227655A1, “Assessment of effect of an agent on a human biological condition using rodent gene expression panels” (priority 2006, published 2008)
“And” between values parts separate entries of the source, which are not always exact repeats. Equal entries are not always repeated.

Test system: custom murine 40-gene Precision Profile for Rheumatoid Arthritis, whole blood
Assay: KRN (K/BxN) serum transfer induced arthritis model, whole blood gene expression by QPCR, vehicle or dexamethasone treatment
Assay type: in vivo, female BALB/c mice
Method: Whole blood gene expression changes were evaluated in vehicle control and drug-treated murine subjects across two murine models of arthritis according to the following arthritis models:
KRN Transgenic Mouse (K/B×N): K/B×N serum from transgenic mouse used to induce arthritis in female BALB/c mice (n=54). Collagen Induced Arthritis (CIA): Bovine type II collagen used to induce arthritis in male DBA/1 mice (n=54).
In addition, naïve, untreated animal groups at baseline and terminal day were included to control for potential age-related changes in gene expression over the extended study periods. Animal groups, time-points, and treatment schedules are summarized in Tables 20A and 20B, respectively.
Whole blood samples from animals were collected by retro-orbital bleed at selected time-points in accordance with the arthritis study schemas described in […], and transferred into sample collection tubes containing a 1.5× lysis solution and RPMI. Samples were processed into total RNA and cDNA. […] It was anticipated from these murine models would provide a better understanding of the relevant molecular response of arthritis induction and their potential correlation to the human disease condition.
Normal murine subject reference values (represented as normalized Ct or ΔCt values) were established for male DBA/1 mice (n=6 for the CIA study arm) and female BALB/c mice (n=6 for the KRN study arm). In both arms of the study, gene expression response of normal (naïve, non-immunized and untreated) murine subjects were evaluated in groups of 6 each at day 0 and day 60 for the CIA study arm, and at day 0 and day 21 for the KRN study arm (see Tables 20A and 20B).
Gene expression responses for the arthritis-induced murine model were evaluated for untreated mice at day 3 and vehicle-treated mice at days 7, 14 and 21 to characterize disease progression.

[1] = KRN Day 7, Dex-treated, group Average
[2] = KRN Day 7, Dex-treated, individual murine subject, listed as Dex
[3] = KRN Day 7 Dex, group Average, whole blood
[4] = KRN Day 7 Dex, individual mouse, whole blood, listed as Dex
[5] = KRN Day 14, Dex-treated, group Average
[6] = KRN Day 14, Dex-treated, individual murine subject

C[C@@H]1C[C@H]2[C@@H]3CCC4=CC(=O)C=C[C@]4(C)[C@@]3(F)[C@@H](O)C[C@]2(C)[C@@]1(O)C(=O)CO [Dexamethasone]
Normalized CT Value (Delta CT) IL1RAP_M [1]: 18.33 | Normalized CT Value (Delta CT) IL1RN—M [1]: 17.22 | Normalized CT Value (Delta CT) IL6_M [1]: 25.38 | Normalized CT Value (Delta CT) JUN_M [1]: 18.89 | Normalized CT Value (Delta CT) MEF2C—M [1]: 18.74 | Normalized CT Value (Delta CT) MMP9—M [1]: 13.84 | Normalized CT Value (Delta CT) NFKB1—M [1]: 15.89 | Normalized CT Value (Delta CT) PADI4—M [1]: 18.34 | Normalized CT Value (Delta CT) PLA2G7—M [1]: 14.34 | Normalized CT Value (Delta CT) PTPRC_M [1]: 13.18 | Normalized CT Value (Delta CT) PTX3_M [1]: 25.34 | Normalized CT Value (Delta CT) SERPINE1_M [1]: 19.43 | Normalized CT Value (Delta CT) TGFB1_M [1]: 14.97 | Normalized CT Value (Delta CT) TIMP1_M [1]: 24.84 | Normalized CT Value (Delta CT) TLR2_M [1]: 17.04 | Normalized CT Value (Delta CT) TLR4_M [1]: 17.74 | Normalized CT Value (Delta CT) TNFSF5—M [1]: 19.10 | Normalized CT Value (Delta CT) TNF_M [1]: 19.04 | Normalized CT Value (Delta CT) VEGF_M [1]: 20.01 | Normalized CT Value (Delta CT) IL1RAP_M [2]: 18.35 and 18.23 and 18.52 and 17.82 and 18.87 and 18.20 | Normalized CT Value (Delta CT) IL1RN—M [2]: 17.09 and 17.55 and 17.42 and 16.65 and 17.60 and 17.00 | Normalized CT Value (Delta CT) IL6_M [2]: 25.25 and 25.61 and 25.41 and 25.23 and 25.30 and 25.45 | Normalized CT Value (Delta CT) JUN_M [2]: 18.66 and 18.44 and 19.15 and 18.37 and 19.81 and 18.91 | Normalized CT Value (Delta CT) MEF2C—M [2]: 19.10 and 17.75 and 19.18 and 18.50 and 19.03 and 18.87 | Normalized CT Value (Delta CT) MMP9—M [2]: 13.85 and 13.83 | Normalized CT Value (Delta CT) NFKB1—M [2]: 16.06 and 14.93 and 16.25 and 15.43 and 16.52 and 16.16 | Normalized CT Value (Delta CT) PADI4—M [2]: 18.44 and 18.48 and 18.77 and 17.63 and 18.63 and 18.10 | Normalized CT Value (Delta CT) PLA2G7—M [2]: 14.36 and 13.77 and 14.74 and 13.71 and 14.94 and 14.53 | Normalized CT Value (Delta CT) PTPRC_M [2]: 13.36 and 12.55 and 13.38 and 12.76 and 13.68 and 13.33 | Normalized CT Value (Delta CT) PTX3_M [2]: 25.27 and 25.26 and 25.48 and 25.42 and 25.11 and 25.50 | Normalized CT Value (Delta CT) SERPINE1_M [2]: 19.43 and 18.99 and 19.66 and 19.03 and 19.81 and 19.67 | Normalized CT Value (Delta CT) TGFB1_M [2]: 15.24 and 14.22 and 15.34 and 14.62 and 15.36 and 15.02 | Normalized CT Value (Delta CT) TIMP1_M [2]: 24.76 and 24.74 and 24.73 and 24.34 and 25.09 and 25.40 | Normalized CT Value (Delta CT) TLR2_M [2]: 17.41 and 16.20 and 17.63 and 16.31 and 17.86 and 16.84 | Normalized CT Value (Delta CT) TLR4_M [2]: 17.64 and 17.44 and 18.32 and 16.84 and 18.23 and 17.96 | Normalized CT Value (Delta CT) TNFSF5—M [2]: 19.49 and 18.16 and 19.15 and 18.68 and 19.51 and 19.59 | Normalized CT Value (Delta CT) TNF_M [2]: 19.01 and 18.04 and 19.79 and 18.91 and 19.32 and 19.14 | Normalized CT Value (Delta CT) VEGF_M [2]: 20.04 and 20.59 and 20.09 and 19.19 and 20.31 and 19.85 | ABCA1_M Normalized CT Value (Delta CT) [3]: 17.55 | APAF1_M Normalized CT Value (Delta CT) [3]: 18.58 | CASP1_M Normalized CT Value (Delta CT) [3]: 17.59 | CASP3_M Normalized CT Value (Delta CT) [3]: 17.32 | CCR3_M Normalized CT Value (Delta CT) [3]: 18.72 | CD3Z_M Normalized CT Value (Delta CT) [3]: 16.52 | CD8A_M Normalized CT Value (Delta CT) [3]: 17.53 | CD14_M Normalized CT Value (Delta CT) [3]: 19.08 | CD86_M Normalized CT Value (Delta CT) [3]: 21.94 | CSPG2_M Normalized CT Value (Delta CT) [3]: 18.69 | F3_M Normalized CT Value (Delta CT) [3]: 22.96 | HMOX1_M Normalized CT Value (Delta CT) [3]: 17.15 | HSPA1A—M Normalized CT Value (Delta CT) [3]: 21.13 | ICAM1—M Normalized CT Value (Delta CT) [3]: 18.39 | IFI16—M Normalized CT Value (Delta CT) [3]: 16.29 | IL1B_M Normalized CT Value (Delta CT) [3]: 13.94 | IL10_M Normalized CT Value (Delta CT) [3]: 25.42 | ABCA1_M Normalized CT Value (Delta CT) [4]: 18.22 and 16.54 and 17.90 and 16.93 and 18.24 and 17.49 | APAF1_M Normalized CT Value (Delta CT) [4]: 18.85 and 18.10 and 18.95 and 18.00 and 19.01 and 18.59 | ARG2_M Normalized CT Value (Delta CT) [4]: 17.02 and 17.06 and 17.28 and 16.20 and 17.35 and 16.48 | CASP1_M Normalized CT Value (Delta CT) [4]: 17.64 and 16.61 and 18.07 and 17.26 and 18.15 and 17.79 | CASP3_M Normalized CT Value (Delta CT) [4]: 17.09 (2×) and 17.18 and 17.10 and 17.91 and 17.54 | CCR3_M Normalized CT Value (Delta CT) [4]: 18.09 and 18.62 and 18.24 and 18.86 and 18.96 and 19.54 | CD3Z_M Normalized CT Value (Delta CT) [4]: 16.64 and 15.65 and 16.81 and 16.13 and 16.77 and 17.10 | CD8A_M Normalized CT Value (Delta CT) [4]: 17.59 and 17.17 and 17.84 and 17.11 and 17.75 and 17.73 | CD14_M Normalized CT Value (Delta CT) [4]: 19.53 and 18.14 and 19.42 and 18.23 and 20.06 and 19.13 | CD86_M Normalized CT Value (Delta CT) [4]: 22.58 and 20.83 and 22.75 and 21.71 and 22.21 and 21.57 | CSPG2_M Normalized CT Value (Delta CT) [4]: 19.41 and 17.60 and 19.56 and 17.94 and 19.13 and 18.51 | F3_M Normalized CT Value (Delta CT) [4]: 22.15 and 23.54 and 24.16 and 21.10 and 25.46 and 21.36 | HMOX1_M Normalized CT Value (Delta CT) [4]: 17.27 and 16.34 and 17.85 and 15.97 and 18.08 and 17.40 | HSPA1A—M Normalized CT Value (Delta CT) [4]: 21.03 and 20.92 and 21.32 and 20.88 and 21.99 and 20.62 | ICAM1—M Normalized CT Value (Delta CT) [4]: 18.70 and 17.80 and 18.96 and 18.10 and 18.69 and 18.08 | IFI16—M Normalized CT Value (Delta CT) [4]: 16.35 and 14.96 and 17.17 and 16.15 and 16.73 and 16.40 | IL1B_M Normalized CT Value (Delta CT) [4]: 14.33 and 13.94 and 14.24 and 13.43 and 14.32 | IL10_M Normalized CT Value (Delta CT) [4]: 25.39 and 25.60 and 25.53 and 25.18 and 25.34 and 25.45 | Normalized CT Value (Delta CT) IL1RAP_M [5]: 18.59 | Normalized CT Value (Delta CT) IL1RN—M [5]: 17.70 | Normalized CT Value (Delta CT) IL6_M [5]: 25.48 | Normalized CT Value (Delta CT) JUN_M [5]: 19.67 | Normalized CT Value (Delta CT) MEF2C—M [5]: 20.33 | Normalized CT Value (Delta CT) MMP9—M [5]: 14.45 | Normalized CT Value (Delta CT) NFKB1—M [5]: 17.29 | Normalized CT Value (Delta CT) PADI4—M [5]: 18.79 | Normalized CT Value (Delta CT) PLA2G7—M [5]: 15.21 | Normalized CT Value (Delta CT) PTPRC_M [6]: 14.30 | Normalized CT Value (Delta CT) PTX3_M [6]: 25.29 | Normalized CT Value (Delta CT) SERPINE1_M [6]: 19.63 | Normalized CT Value (Delta CT) TGFB1_M [6]: 16.04 | Normalized CT Value (Delta CT) TIMP1_M [6]: 25.27 | Normalized CT Value (Delta CT) TLR2_M [6]: 18.52
